Source: ChEMBL document CHEMBL5390201, “The Natural Alkaloid (-)-N-Hydroxyapiosporamide Suppresses Colorectal Tumor Progression as an NF-κB Pathway Inhibitor by Targeting the TAK1-TRAF6 Complex” (J Nat Prod, 2023)
Activity calls are given as the source filed them. The calls are words filed in the database; no cut-off is given here.

Experiments:
HT-29 [1] = assay: Induction of apoptosis in human HT-29 cells assessed as necrotic cells at 5 uM preincubated with Z-VAD-FMK for 1 hr followed by compound addition and measured after 24 hrs by Annexin V-FITC/PI staining based flow cytometric analysis (reference value: 0.4 %); format: functional
HT-29 [2] = assay: Induction of apoptosis in human HT-29 cells assessed as early apoptotic cells at 5 uM preincubated with Z-VAD-FMK for 1 hr followed by compound addition and measured after 24 hrs by Annexin V-FITC/PI staining based flow cytometric analysis (reference value: 4.05 %); format: functional
[3] = Plasma clearance in Sprague-Dawley rat at 10 mg/kg, iv measured for 24 hrs by HPLC-MS/MS analysis; format: ADME, organism-based
HT-29 [4] = assay: Induction of autophagy in human HT-29 cells transfected with GFP-LC3 assessed as increase in LC3 dot puncta at 1 to 10 uM incubated for 24 hrs by fluorescence microscopy; format: functional, cell-based; conditions: dose 1-10 µM
HCT-116 [5] = assay: Induction of cell cycle arrest in human HCT-116 cells assessed as accumulation of cells at G0/G1 phase at 10 uM by RNase/PI staining based flow cytometry analysis (reference value: 33.08 %); format: functional
HT-29 [6] = assay: Induction of apoptosis in human HT-29 cells assessed as late apoptotic cells at 1 uM incubated for 24 hrs by Annexin V-FITC/PI staining based flow cytometric analysis (reference value: 1.56 %); format: functional
HT-29 [7] = assay: Induction of cell cycle arrest in human HT-29 cells assessed as accumulation of cells at G2/M phase at 10 uM by RNase/PI staining based flow cytometry analysis (reference value: 9.93 %); format: functional
[8] = biological target: T1, Nuclear factor NF-kappa-B complex (Homo sapiens) (UniProt Q00653+P19838+Q04206); assay: Inhibition of TNF-alpha induced NFkappaB activation in human HCT-116 cells assessed as inhibition of p65 phosphorylation at 1 to 10 uM pretreated for 24 hrs followed by TNFalpha stimulation for 10 mins by Western blot analysis; format: cell-based; conditions: dose 1-10 µM, time 1450.0 min
T1 sequence (P19838 whole entry, looked up): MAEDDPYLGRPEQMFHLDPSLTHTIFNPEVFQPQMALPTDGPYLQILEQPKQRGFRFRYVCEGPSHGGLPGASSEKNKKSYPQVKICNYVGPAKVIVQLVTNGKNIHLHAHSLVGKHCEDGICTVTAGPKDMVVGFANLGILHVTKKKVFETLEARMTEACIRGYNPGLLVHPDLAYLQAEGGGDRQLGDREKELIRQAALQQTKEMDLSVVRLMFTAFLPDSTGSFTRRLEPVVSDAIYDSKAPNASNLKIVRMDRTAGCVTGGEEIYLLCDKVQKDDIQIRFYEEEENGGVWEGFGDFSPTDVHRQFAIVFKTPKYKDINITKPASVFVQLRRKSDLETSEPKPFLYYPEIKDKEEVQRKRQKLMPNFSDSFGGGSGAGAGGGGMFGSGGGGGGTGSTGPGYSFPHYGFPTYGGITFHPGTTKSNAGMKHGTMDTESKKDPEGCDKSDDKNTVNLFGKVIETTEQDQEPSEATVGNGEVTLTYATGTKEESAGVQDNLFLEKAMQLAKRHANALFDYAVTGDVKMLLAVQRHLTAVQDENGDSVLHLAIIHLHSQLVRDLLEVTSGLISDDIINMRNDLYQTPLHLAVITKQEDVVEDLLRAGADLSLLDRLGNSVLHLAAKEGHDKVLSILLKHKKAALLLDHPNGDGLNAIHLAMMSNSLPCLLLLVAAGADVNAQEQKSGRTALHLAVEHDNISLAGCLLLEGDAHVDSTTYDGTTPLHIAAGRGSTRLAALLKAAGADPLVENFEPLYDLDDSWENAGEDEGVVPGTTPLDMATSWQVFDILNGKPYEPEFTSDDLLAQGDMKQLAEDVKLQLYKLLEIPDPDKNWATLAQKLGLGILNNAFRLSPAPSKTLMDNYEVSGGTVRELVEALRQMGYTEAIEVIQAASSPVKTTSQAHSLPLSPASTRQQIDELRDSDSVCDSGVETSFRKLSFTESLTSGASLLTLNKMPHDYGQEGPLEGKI
T1 sequence (Q00653 whole entry, looked up): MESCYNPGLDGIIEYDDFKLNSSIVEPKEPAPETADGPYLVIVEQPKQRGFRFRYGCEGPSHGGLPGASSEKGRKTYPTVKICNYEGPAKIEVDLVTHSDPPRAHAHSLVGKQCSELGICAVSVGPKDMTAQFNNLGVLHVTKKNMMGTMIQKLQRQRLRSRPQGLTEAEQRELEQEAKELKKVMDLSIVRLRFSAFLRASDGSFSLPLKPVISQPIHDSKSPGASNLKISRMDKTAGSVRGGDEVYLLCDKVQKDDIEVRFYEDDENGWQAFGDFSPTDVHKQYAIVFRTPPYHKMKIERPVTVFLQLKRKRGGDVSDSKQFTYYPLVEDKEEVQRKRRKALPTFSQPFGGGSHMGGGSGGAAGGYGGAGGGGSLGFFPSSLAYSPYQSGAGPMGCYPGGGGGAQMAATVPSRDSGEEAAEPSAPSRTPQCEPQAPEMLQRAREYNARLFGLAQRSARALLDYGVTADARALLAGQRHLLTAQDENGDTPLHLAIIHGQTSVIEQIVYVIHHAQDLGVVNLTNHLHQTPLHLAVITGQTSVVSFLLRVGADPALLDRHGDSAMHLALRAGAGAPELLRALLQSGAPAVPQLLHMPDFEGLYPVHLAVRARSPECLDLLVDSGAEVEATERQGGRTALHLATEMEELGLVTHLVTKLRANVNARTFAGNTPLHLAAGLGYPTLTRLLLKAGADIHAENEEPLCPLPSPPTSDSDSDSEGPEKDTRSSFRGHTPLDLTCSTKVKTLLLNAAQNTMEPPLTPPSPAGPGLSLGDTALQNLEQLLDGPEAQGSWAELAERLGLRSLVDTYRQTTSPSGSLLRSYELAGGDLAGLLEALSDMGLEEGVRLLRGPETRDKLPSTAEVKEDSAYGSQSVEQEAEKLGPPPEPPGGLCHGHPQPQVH
T1 sequence (Q04206 whole entry, looked up): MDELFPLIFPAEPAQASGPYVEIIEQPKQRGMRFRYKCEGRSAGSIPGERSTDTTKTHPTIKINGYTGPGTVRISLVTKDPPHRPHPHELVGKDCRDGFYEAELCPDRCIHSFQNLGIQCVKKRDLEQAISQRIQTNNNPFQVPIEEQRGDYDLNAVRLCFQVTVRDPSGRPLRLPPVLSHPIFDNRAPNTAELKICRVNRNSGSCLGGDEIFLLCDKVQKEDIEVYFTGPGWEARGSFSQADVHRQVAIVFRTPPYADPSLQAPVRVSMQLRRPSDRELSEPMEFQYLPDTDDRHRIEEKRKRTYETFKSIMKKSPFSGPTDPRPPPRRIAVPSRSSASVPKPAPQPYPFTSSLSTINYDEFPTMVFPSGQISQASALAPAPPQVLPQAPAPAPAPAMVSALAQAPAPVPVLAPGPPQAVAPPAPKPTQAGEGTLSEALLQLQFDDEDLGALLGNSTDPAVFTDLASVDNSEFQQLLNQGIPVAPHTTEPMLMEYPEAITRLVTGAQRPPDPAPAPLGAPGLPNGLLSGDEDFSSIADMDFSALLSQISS

Mus musculus [9] = assay: In vivo inhibition of NFkappaB activation in LPS-induced BALB/c mouse model of endotoxin shock assessed as inhibition of IL6 mRNA expression in liver at 5 mg/kg, ip pretreated for 4 hrs followed by LPS stimulation for 1 hr by RT-PCR analysis; format: functional, organism-based; conditions: time 5.0 hrs
HT-29 [10] = assay: Induction of apoptosis in human HT-29 cells assessed as necrotic cells at 1 uM incubated for 24 hrs by Annexin V-FITC/PI staining based flow cytometric analysis (reference value: 0.14 %); format: functional
Mus musculus [11] = assay: In vivo inhibition of NFkappaB activation in AOM/DSS-induced inflammatory bowel disease BALB/c mouse model assessed as inhibition of serum IL-8 production at 5 to 10 mg/kg, ip pretreated with AOM for 7 days further replaced with DSS for 7 days and repeated for 2 times followed by every 2 days compound treatment for […] starting from day 50 by ELISA; format: functional, organism-based; conditions: dose 5-10 mg/kg, time 21.0 day
HCT-116 [12] = assay: Induction of cell cycle arrest in human HCT-116 cells assessed as accumulation of cells at G0/G1 phase at 5 uM by RNase/PI staining based flow cytometry analysis (reference value: 33.08 %); format: functional
HCT-116 [13] = assay: Induction of apoptosis in human HCT-116 cells assessed as early apoptotic cells at 0.25 uM incubated for 24 hrs by Annexin V-FITC/PI staining based flow cytometric analysis (reference value: 7.22 %); format: functional
[14] = Toxicity in athymic nude BALB/c mouse xenografted with human HCT-116 cells assessed as pathological changes in liver at 5 to 15 mg/kg, ip administered every other day and measured after 14 days by hematoxylin and eosin staining-based microscopic analysis; format: organism-based; conditions: in vivo, 336 h, dose 5-15 mg/kg, time 14 day
Cell membrane = assay: Disruption of mitochondrial membrane potential in human HCT-116 cells at 0.25 to 10 uM measured after 24 hrs by JC-1 staining based flow cytometry analysis; format: subcellular; conditions: dose 0.25-10 µM
HT-29 [15] = assay: Induction of apoptosis in human HT-29 cells assessed as late apoptotic cells at 5 uM incubated for 24 hrs by Annexin V-FITC/PI staining based flow cytometric analysis (reference value: 1.56 %); format: functional
HT-29 [16] = assay: Induction of apoptosis in human HT-29 cells assessed as late apoptotic cells at 5 uM incubated for 24 hrs by Annexin V-FITC/PI staining based flow cytometric analysis (reference value: 6.91 %); format: functional
[17] = biological target: T1, Nuclear factor NF-kappa-B complex (Homo sapiens); assay: Inhibition of NFkappaB activation in HEK293T cells transfected with Flag-tagged MyD88 and kappaB luciferase/pTK-renilla reporters at 2 uM incubated for 6 hrs by Dual Luciferase Reporter Assay; format: cell-based; conditions: HEK-293T
SW480 = assay: Cytotoxicity against human SW480 cells assessed as decrease in cell viability incubated for 48 hrs by SRB assay; format: functional, cell-based; conditions: SW480, 48 h
[18] = biological target: T1, Nuclear factor NF-kappa-B complex (Homo sapiens); assay: Inhibition of TNF-alpha induced NFkappaB activation in human HT-29 cells assessed as downregulation of A20 gene expression pretreated for 24 hrs followed by TNFalpha stimulation and measured after 2 hrs by quantitative RT-PCR analysis; format: cell-based; conditions: dose 1-10 µM, time 26.0 hrs
HT-29 [19] = assay: Induction of autophagic flux in human HT-29 cells assessed as increase in LC3I to LC3II conversion preincubated with 3-methyladenine for 1 hr followed by compound addition and measured after 24 hrs by Western blot analysis; format: functional, cell-based
HT-29 [20] = assay: Induction of autophagy in human HT-29 cells assessed as increase in autophagic vesicles at 1 to 10 uM incubated for 24 hrs MDC staining-based fluorescence microscopy; format: functional, cell-based; conditions: dose 1-10 µM
HCT-116 [21] = assay: Antitumor activity against human HCT-116 cells xenografted in athymic nude BALB/c mouse assessed as induction of autophagy by measuring reduction in p62 expression in tumor at 15 mg/kg, ip administered every other day and measured after 14 days by immunohistochemistry analysis; format: functional, organism-based; conditions: time 14.0 day
HCT-116 [22] = assay: Induction of cell death in human HCT-116 cells at 0.5 to 10 uM pretreated with Z-VAD-FMK for 1 hr followed by compound addition and measured after 24 hrs by SRB assay; format: functional, cell-based; conditions: dose 0.5-10 µM
HT-29 [23] = assay: Induction of apoptosis in human HT-29 cells assessed as late apoptotic cells at 0.5 uM incubated for 24 hrs by Annexin V-FITC/PI staining based flow cytometric analysis (reference value: 1.56 %); format: functional
HT-29 [24] = assay: Induction of cell cycle arrest in human HT-29 cells assessed as decrease in Cyclin B protein expression upto 10 uM incubated for 24 hrs by Western blot analysis; format: functional, cell-based
HCT-116 [25] = assay: Induction of autophagy in human HCT-116 cells assessed as increase in LC3I to LC3II conversion at 1 to 10 uM incubated for 24 hrs by Western blotting analysis; format: functional, cell-based; conditions: dose 1-10 µM
HCT-116 [26] = assay: Induction of apoptosis in human HCT-116 cells assessed as early apoptotic cells at 5 uM incubated for 24 hrs by Annexin V-FITC/PI staining based flow cytometric analysis (reference value: 8.06 %); format: functional
HCT-116 [27] = assay: Induction of apoptosis in human HCT-116 cells assessed as inhibition of caspase 3 protein expression measured for 24 hrs by Western blot analysis; format: functional, cell-based; conditions: dose 0-10 µM
HT-29 [28] = assay: Cytotoxicity against human HT-29 cells assessed as decrease in cell viability incubated for 48 hrs by SRB assay; format: functional, cell-based; conditions: HT-29, 48 h

## C[C@@H]1CC[C@H]2[C@H](C(=O)c3c(O)c([C@@]4(O)CC[C@@H](O)[C@H]5O[C@H]54)cn(O)c3=O)[C@H](C)C=C[C@@H]2C1
HT-29 [1]
  Activity: 0.15%
HT-29 [2]
  Activity: 17.1%
[3]
  clearance: 4 mL/min/kg
HT-29 [4]
  Activity: Active
HCT-116 [5]
  Activity: 46.75%
HT-29 [6]
  Activity: 7.39%
HT-29 [7]
  Activity: 0.78%
[8]
  inhibition: Active
Mus musculus [9]
  inhibition: Active
HT-29 [10]
  Activity: 0.4%
Mus musculus [11]
  inhibition: Active
HCT-116 [12]
  Activity: 44.31%
HCT-116 [13]
  Activity: 8.93%
[14]
  Activity: Non-Toxic
Cell membrane
  Activity: Active
HT-29 [15]
  Activity: 4.04%
HT-29 [16]
  Activity: 21.9%
[17]
  inhibition: Active
SW480
  IC50: 570 nM
[18]
  inhibition: Dose-Dependent Effect
HT-29 [19]
  Activity: Active
HT-29 [20]
  Activity: Active
HCT-116 [21]
  Activity: Active
HCT-116 [22]
  inhibition: inactive
HT-29 [23]
  Activity: 6.72%
HT-29 [24]
  Activity: Active
HCT-116 [25]
  Activity: Active
HCT-116 [26]
  Activity: 5.47%
HCT-116 [27]
  Activity: Dose-Dependent Effect
HT-29 [28]
  IC50: 570 nM
